Data: patent publication US20110009433A1, “BICYCLIC PYRROLE COMPOUND” (DAINIPPON SUMITOMO PHARMA CO., LTD., priority 2008, published 2011)
Structures can show the parent of a compound that is named as a salt.

Assays:
[1] = Hygroscopicity measured at room temperature (weight change under moisture adsorption/desorption); format: physicochemical; settings: humidity of 0 to 90%
Description: (§1) The hygroscopicity was measured at room temperature for each of the crystalline monohydrochloride 0.5 hydrate of Example 1 (compound A) produced by the method of the present invention and the amorphous powders of the compound of Example 6 of International Publication No. 2006/068163 (compound B) produced by a conventional technique.

human recombinant DPP IV = biological target: T1, human recombinant DPP IV (Homo sapiens, UniProt P27487); test: In vitro DPP-IV inhibitory action measurement test; format: biochemical; settings: preincubated 100 to 110 minutes, substrate Gly-Pro-MCA 40 μmol/L
T1 construct: purchased R&D system
Description: Solutions containing test compounds were prepared at various concentrations and added to microassay plates. Further, human recombinant DPP IV (R&D system) was added and preincubated at room temperature for 100 to 110 minutes, followed by adding a substrate (Glycyl-L-proline 4-methylcoumaryl-7-amide, Peptide Institute, Inc.; final concentration: 40 μmol/L) to start the enzymatic reaction. The enzymatic reaction rate was determined by measuring the fluorescence change with time for 10 minutes after 10 minutes elapsed from the start of addition of the substrate using a fluorescence plate reader (excitation wavelength: 380 nm, measurement wavelength: 460 nm). From the results obtained, the compound concentration showing 50% inhibition was calculated as an IC50 value.

[2] = Storage stability under a light source: residual rate by HPLC and appearance after two week storage; format: physicochemical; settings: for residual rate: HPLC area percentage; for change in color after the stability test (in words) / stability under a light source (in words): both 1000 lux and 4000 lux
Description: as §1, with “residual rates after two week storage under a light source of 1000 lux and 4000 lux were” for “hygroscopicity was”, “measured” for “measured at room temperature”
The residual rate (%) of a compound was determined by the area percentage of the residual rate of the compound measured using high performance liquid chromatography (HPLC). The HPLC measurement conditions were as follows:
Column: CAPCELL PAK C18 UG120 (4.6 mm I.D.×250 mm)
Mobile phase (A/B): 10 mM sodium phosphate buffer (pH=6.9)/CH3CN
Mobile phase (ratio of B): 30% (0 min) →90% (45 min)
Column temperature: 40° C.

[3] = two week storage, 1000 Lux, 11% RH
[4] = two week storage, 4000 Lux, 10% RH

T1 sequence (P27487 whole entry): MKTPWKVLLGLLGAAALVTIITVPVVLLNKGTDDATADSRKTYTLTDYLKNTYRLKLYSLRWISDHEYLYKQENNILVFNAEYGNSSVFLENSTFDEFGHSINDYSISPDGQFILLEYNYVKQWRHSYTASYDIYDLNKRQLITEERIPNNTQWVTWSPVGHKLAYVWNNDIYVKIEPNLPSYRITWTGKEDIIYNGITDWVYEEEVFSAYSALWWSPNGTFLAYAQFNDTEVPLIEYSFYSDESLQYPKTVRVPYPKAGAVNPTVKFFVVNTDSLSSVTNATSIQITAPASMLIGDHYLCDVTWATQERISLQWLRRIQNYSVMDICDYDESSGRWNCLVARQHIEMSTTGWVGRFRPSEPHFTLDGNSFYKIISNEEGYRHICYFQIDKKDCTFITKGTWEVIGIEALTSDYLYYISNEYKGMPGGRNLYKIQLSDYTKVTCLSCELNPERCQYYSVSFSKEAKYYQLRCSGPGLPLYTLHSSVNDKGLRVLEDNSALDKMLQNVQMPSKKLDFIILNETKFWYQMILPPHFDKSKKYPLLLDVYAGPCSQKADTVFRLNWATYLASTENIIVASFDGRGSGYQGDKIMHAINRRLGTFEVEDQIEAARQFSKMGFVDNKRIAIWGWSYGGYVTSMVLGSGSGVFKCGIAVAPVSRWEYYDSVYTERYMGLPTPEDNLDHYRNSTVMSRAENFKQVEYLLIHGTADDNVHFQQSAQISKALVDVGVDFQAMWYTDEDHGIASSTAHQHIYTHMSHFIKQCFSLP

melting point [°C] | change in the weight (hygroscopicity) [1] | IC50 (human recombinant DPP IV) [nM] | appearance (color) ([2]; Initial) | residual rate ([2]; Initial) [%] | change in color after the stability test (in words) ([2]; two week storage) | stability under a light source (in words) ([2]; two week storage) | appearance (color) [2, 3] | residual rate [2, 3] [%] | appearance (color) [2, 4] | residual rate [2, 4] [%] | SMILES
205 to 208 |  |  |  |  |  |  |  |  |  |  | Cn1c(=O)c2c(cc(N3CCC[C@@H](N)C3)n2Cc2cc(F)ccc2Cl)n(C)c1=O (as salt: hydrochloride) (hydrate or solvate) [Compound A, 6-[(3R)-3-aminopiperidin-1-yl]-5-(2-chloro-5-fluorobenzyl)-1,3-dimethyl-1H-pyrrolo[3,2-d]pyrimidine-2,4(3H,5H)-dione monohydrochloride hemihydrate]
 | no change in the weight | 0.71 | Pale yellow | 100.0 | no change in color | extremely high stability | Pale yellow | 100.0 | Pale yellow | 99.9 | Cn1c(=O)c2c(cc(N3CCC[C@@H](N)C3)n2Cc2cc(F)ccc2Cl)n(C)c1=O [Compound A, 6-[(3R)-3-aminopiperidin-1-yl]-5-(2-chloro-5-fluorobenzyl)-1,3-dimethyl-1H-pyrrolo[3,2-d]pyrimidine-2,4(3H,5H)-dione monohydrochloride hemihydrate]
 | −5.0 to 9.0% |  | Pale yellow | 100.0 | apparently changed in color to yellow | low stability | Yellow | 99.2 | Yellow | 97.4 | Cl.Cn1c(=O)c2c(cc(N3CCC[C@@H](N)C3)n2Cc2cc(F)ccc2Cl)n(C)c1=O [Compound B, reference compound]
